Test results taken from patent US11141413B2, “Method of treating renal cell carcinoma using N-(4-(6,7-dimethoxyquinolin-4-yloxy)phenyl)-N′-(4-fluorophenyl)cyclopropane-1,1-dicarboxamide, (2S)-hydroxybutanedioate” (Exelixis, Inc., priority 2016, dated 2021).

Tested on: bone metastases in advanced RCC patients
Experiment: METEOR bone endpoints: bone scan response, skeletal-related events, bone markers
Assay type: in vivo, human
Settings: for C-terminal cross-lined telopeptides of type 1 collagen (CTx), median / N-terminal propeptide of type 1 collagen (P1NP), median: patients with bone metastases at baseline; for Bone scan response (BSR) per IRC: patients with bone lesions at baseline by bone scan, BSR = ≥30% decrease in BSLA
Description: The study design in depicted in FIG. 8.3. Clinical outcome measures included PFS, ORR, overall survival (OS), and safety. Exploratory endpoints included bone scan response (BSR) in patients with bone scan lesions at baseline (Brown Nucl Med Commun 2012 33:384), incidence of skeletal-related events (SRE), and changes in bone turnover markers. The subgroup of patients with bone metastases (N=142) was defined by the presence of bone metastases at baseline by CT or MRI per IRC. Bone scan response (BSR) was evaluated for patients who had bone lesions detected by technetium bone scans at baseline (N=178).
Participants were screened via CT or MRI every 8 weeks for the first 12-months post-randomization, and then every 12 weeks thereafter. Technetium bone scans were performed at screening (all patients), every 16 weeks for the first 12 months post-randomization (only in patients with bone lesions at baseline), and then every 23 weeks thereafter. Skeletal-related events (SREs) were assessed and consisted of pathological fractures, spinal cord compression, surgery to bone, and external radiation therapy to bone. Serum bone marker analyses consisted on N-terminal propeptide of type I collagen (PINP), and the bone resorption marker c-terminal cross-lined telopeptides of type I collagen (CTx), which were collected prior to the first dose at week 1, at week 5, and at week 9.
Bone scan responses per IRC in patients with bone scan lesions were performed using computer-assisted detection of bone scan lesions. An IRC was used to quantitate bone scan tumor burden using computer-assisted detection (CAD) to measure lesions and defined criteria for response. Bone scan lesion area (BSLA), which represents the number of pixels with radiotracer uptake above the threshold for normal bone, was also calculated. BSR was defined as greater than or equal to 30% decrease in BSLA.

[1] = patients with an SRE pre-randomization
[2] = prior history of SREs, Pts with Bone Metastases
[3] = prior history of SREs, Pts without Bone Metastases

Structure (SMILES) | C-terminal cross-lined telopeptides of type 1 collagen (CTx), median (Baseline) [µg/L] | N-terminal propeptide of type 1 collagen (P1NP), median (Baseline) [µg/L] | Post-Randomization SREs, % (Pts with Bone Metastases) | Post-randomization SRE: External radiation therapy to bone, % (Pts with Bone Metastases) | Post-randomization SRE: Pathologic fractures, % (Pts with Bone Metastases) | Post-randomization SRE: Spinal cord compression, % (Pts with Bone Metastases) | Post-randomization SRE: Surgery to bone, % (Pts with Bone Metastases) | Time to first SRE, median (Pts with Bone Metastases) [months] | Post-Randomization SREs, % (Pts without Bone Metastases) | Post-randomization SRE: External radiation therapy to bone, % (Pts without Bone Metastases) | Post-randomization SRE: Pathologic fractures, % (Pts without Bone Metastases) | Post-randomization SRE: Spinal cord compression, % (Pts without Bone Metastases) | Post-randomization SRE: Surgery to bone, % (Pts without Bone Metastases) | Time to first SRE, median (Pts without Bone Metastases) [months] | C-terminal cross-lined telopeptides of type 1 collagen (CTx), median (Week 5) [µg/L] | N-terminal propeptide of type 1 collagen (P1NP), median (Week 5) [µg/L] | Cases of spinal cord compression [1] | Incidence of post-randomization SREs [1] [%] | Bone scan response (BSR) per IRC [%] | Post-randomization SRE: External radiation therapy to bone, % [2] | further results
COc1cc2nccc(Oc3ccc(NC(=O)C4(C(=O)Nc5ccc(F)cc5)CC4)cc3)c2cc1OC [cabozantinib] | 0.40 | 48.5 | (21) % | (9) % | (12) % | (3) % | (8) % | 3.45 | (9) % | (7) % | (3) % | (1) % | (2) % | 3.93 | 0.19 | 38.9 | 0 | 16 | 18 | (9) % | Reductions in bone markers (cabozantinib vs everolimus): greater; Bone scan response (BSR) per IRC (listed as Cabozantinib): 18 (11, 27) %; Post-randomization SRE: Pathologic fractures, % [2]: (14) %; Post-randomization SRE: Surgery to bone, % [2]: (9) %; SREs in patients with a prior history of SREs, % [2]: (23) %; Time to first SRE, median [2]: 3.25 months; Post-randomization SRE: External radiation therapy to bone, % [3]: (8) %; Post-randomization SRE: Pathologic fractures, % [3]: (6) %; Post-randomization SRE: Surgery to bone, % [3]: (4) %; SREs in patients with a prior history of SREs, % [3]: (10) %; Time to first SRE, median [3]: 2.76 months; Cases of spinal cord compression (randomized patients): 4; Patients with at least one skeletal-related event (SRE) (randomized patients): 12%
CO[C@H]1C[C@@H]2CC[C@@H](C)[C@@](O)(O2)C(=O)C(=O)N2CCCC[C@H]2C(=O)O[C@H]([C@H](C)C[C@@H]2CC[C@@H](OCCO)[C@H](OC)C2)CC(=O)[C@H](C)/C=C(\C)[C@@H](O)[C@@H](OC)C(=O)[C@H](C)C[C@H](C)/C=C/C=C/C=C/1C [everolimus] | 0.43 | 49.9 | (29) % | (25) % | (5) % | (6) % | (8) % | 2.53 | (10) % | (7) % | (3) % | (2) % | (2) % | 4.27 | 0.43 | 44.1 | 5 | 34 | 10 | (28) % | Bone scan response (BSR) per IRC (listed as Everolimus): 10 (4, 19) %; Post-randomization SRE: Pathologic fractures, % [2]: (5) %; Post-randomization SRE: Spinal cord compression, % [2]: (5) %; Post-randomization SRE: Surgery to bone, % [2]: (7) %; SREs in patients with a prior history of SREs, % [2]: (33) %; Time to first SRE, median [2]: 2.41 months; Post-randomization SRE: External radiation therapy to bone, % [3]: (23) %; Post-randomization SRE: Pathologic fractures, % [3]: (13) %; Post-randomization SRE: Spinal cord compression, % [3]: (6) %; Post-randomization SRE: Surgery to bone, % [3]: (9) %; SREs in patients with a prior history of SREs, % [3]: (36) %; Time to first SRE, median [3]: 4.27 months; Cases of spinal cord compression (randomized patients): 8; Patients with at least one skeletal-related event (SRE) (randomized patients): 14%
